This note sets out measurements from ChEMBL document CHEMBL1147307, “Cytotoxic macrolides from a cultured marine dinoflagellate of the genus Amphidinium” (J Nat Prod, 1989).

Molecules are shown by their SMILES. In brackets after ≈: the same amount, converted by molar mass.

For this experiment, the system named is L1210. Put plainly: Cytotoxicity against mouse L1210 cells. Format: functional, cell-based.

A word on the IC50: it is the concentration that gives 50% inhibition. Lower therefore signals greater potency in that assay. `C=C1/C=C(\C)C(C)(O)CC(O)CC(=O)C(O)C(O)C(C)CC(C)OC(=O)/C(C)=C/CC/C=C/C(OC)C(O)CC(C)C1` (stereo unspecified) registered an IC50 of 0.081 µg/mL (≈ 0.136 µM).
